Reference: patent publication US11529341B2, “Bicyclic compounds as inhibitors of PD1/PD-L1 interaction/activation” (JUBILANT PRODEL LLC, priority 2018, dated 2022)

Each molecule was assayed against T1, PD-1/PD-L1 interaction (Homo sapiens, UniProt Q9NZQ7) (assay: PD-1/PD-L1 Homogenous Time-Resolved Fluorescence (HTRF) binding assay (CisBio kit)). Conditions: Biochemical PD1/PD-L1 inhibition.
T1 construct: Tag1 (undisclosed kit tag); purchased CisBio 63ADK000CPAPEG
How it was run: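 Tagged PD-L1 and PD-1 proteins preincubated with compound 15 min, then anti-Tag1-Eu3+ donor and anti-Tag2-XL665 acceptor added, 1 h at room temperature. Emission read at 665 and 620 nm; signal expressed as HTRF ratio (665/620)×10^4, loss of signal indicating blocked binding.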

T1 sequence (Q9NZQ7 19-238 limits assumed): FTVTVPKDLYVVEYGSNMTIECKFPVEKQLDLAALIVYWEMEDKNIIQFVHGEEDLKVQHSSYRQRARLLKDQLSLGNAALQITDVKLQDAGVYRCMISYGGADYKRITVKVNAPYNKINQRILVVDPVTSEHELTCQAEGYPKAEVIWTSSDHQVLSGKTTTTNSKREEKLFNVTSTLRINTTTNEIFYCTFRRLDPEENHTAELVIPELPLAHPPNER

| Structure (SMILES) | IC50 |
| --- | --- |
| Cc1c(COc2cc(OCc3cncc(C#N)c3)c(CN3C[C@H](O)C[C@H]3C(=O)O)c3c2CCC3)cccc1-c1ccccc1 [Compound 47, (2S,4R)-1-((5-((5-cyanopyridin-3-yl)methoxy)-7-((2-methyl-[1,1′-biphenyl]-3-yl)methoxy)-2,3-dihydro-1H-inden-4-yl)methyl)-4-hydroxypyrrolidine-2-carboxylic acid] | < 100 nM |
| COc1cc(OCc2cccc(-c3ccccc3)c2C#N)c2c(c1CNC(CO)(CO)CO)CCC2 [Compound 58, 3-(((7-(((1,3-dihydroxy-2-(hydroxymethyl)propan-2-yl)amino)methyl)-6-methoxy-2,3-dihydro-1H-inden-4-yl)oxy)methyl)-[1,1′-biphenyl]-2-carbonitrile] | < 100 nM |
| Cc1c(COc2c(Cl)cc(CN3C[C@H](O)C[C@H]3C(=O)O)c3c2CCC3)cccc1-c1ccccc1 [Compound 31, (2S,4R)-1-((6-chloro-7-((2-methyl-[1,1′-biphenyl]-3-yl)methoxy)-2,3-dihydro-1H-inden-4-yl)methyl)-4-hydroxypyrrolidine-2-carboxylic acid] | 100 to 500 nM |
| Cc1c(COc2cc(OCCCCC(=O)O)c(CN3CCCC[C@H]3C(=O)O)c3c2CCC3)cccc1-c1ccccc1 [Compound 67, (S)-1-((5-(4-carboxybutoxy)-7-((2-methyl-[1,1′-biphenyl]-3-yl)methoxy)-2,3-dihydro-1H-inden-4-yl)methyl)piperidine-2-carboxylic acid] | < 100 nM |
| COc1cc(OCc2cccc(-c3cccc(OCCCN4CCC(F)(F)C4)c3C)c2C)c2c(c1CN1CCCC[C@H]1C(=O)O)CCC2 [Compound 7, (S)-1-((7-((3′-(3-(3,3-difluoropyrrolidin-1-yl)propoxy)-2,2′-dimethyl-[1,1′-biphenyl]-3-yl)methoxy)-5-methoxy-2,3-dihydro-1H-inden-4-yl)methyl)piperidine-2-carboxylic acid] | > 500 nM |
| Cc1cc(CN2C[C@H](O)C[C@H]2C(=O)O)c2c(c1OCc1cccc(-c3ccccc3)c1C)CCC2 [Compound 29, (2S,4R)-4-hydroxy-1-((6-methyl-7-((2-methyl-[1,1′-biphenyl]-3-yl)methoxy)-2,3-dihydro-1H-inden-4-yl)methyl)pyrrolidine-2-carboxylic acid] | 100 to 500 nM |
| COc1cc(OCc2cccc(-c3ccccc3)c2C)c2c(c1CN1C[C@H](O)C[C@H]1C(=O)O)CCC2 [Compound 25, (2S,4R)-4-hydroxy-1-((5-methoxy-7-((2-methyl-[1,1′-biphenyl]-3-yl)methoxy)-2,3-dihydro-1H-inden-4-yl)methyl)pyrrolidine-2-carboxylic acid] | < 100 nM |

The next lines start with the values.

| IC50 | Structure (SMILES) |
| --- | --- |
| < 100 nM | CC(=O)NCCN(C)Cc1c(OCc2cccc(C#N)c2)cc(OCc2cccc(-c3ccccc3)c2C)c2c1CCC2 [Compound 53, N-(2-(((5-((3-cyanobenzyl)oxy)-7-((2-methyl-[1,1′-biphenyl]-3-yl)methoxy)-2,3-dihydro-1H-inden-4-yl)methyl)(methyl)amino)ethyl)acetamide] |
| < 100 nM | Cc1c(COc2cc(OCc3cccc(C#N)c3)c(CN3CC4(CC4)C[C@H]3C(=O)O)c3c2CCC3)cccc1-c1ccccc1 [Compound 42, (S)-5-((5-((3-cyanobenzyl)oxy)-7-((2-methyl-[1,1′-biphenyl]-3-yl)methoxy)-2,3-dihydro-1H-inden-4-yl)methyl)-5-azaspiro[2.4]heptane-6-carboxylic acid] |
| < 100 nM | Cc1c(COc2cc(OCc3cccc(C#N)c3)c(CN3CCC[C@@H]4C[C@@]43C(=O)O)c3c2CCC3)cccc1-c1ccccc1 (racemic) [Compound 43, rac-(1R,6S)-2-((5-((3-cyanobenzyl)oxy)-7-((2-methyl-[1,1′-biphenyl]-3-yl)methoxy)-2,3-dihydro-1H-inden-4-yl)methyl)-2-azabicyclo[4.1.0]heptane-1-carboxylic acid] |
| 100 to 500 nM | COc1cc(OCc2cccc(-c3ccccc3)c2C#N)c2c(c1CN1CCCCC1CC(=O)O)CCC2 (centres unmarked) [Compound 63, 2-(1-((7-((2-cyano-[1,1′-biphenyl]-3-yl)methoxy)-5-methoxy-2,3-dihydro-1H-inden-4-yl)methyl)piperidin-2-yl)acetic acid] |
| 100 to 500 nM | COc1cc(OCc2cccc(-c3ccccc3)c2C#N)c2c(c1CN(C)CCN(C)C(C)=O)CCC2 [Compound 64, N-(2-(((7-((2-cyano-[1,1′-biphenyl]-3-yl)methoxy)-5-methoxy-2,3-dihydro-1H-inden-4-yl)methyl)(methyl)amino)ethyl)-N-methylacetamide] |
| < 100 nM | Cc1c(COc2cc(OCC(F)(F)F)c(CN3CCCC[C@H]3C(=O)O)c3c2CCC3)cccc1-c1ccccc1 [Compound 12, (S)-1-((7-((2-methyl-[1,1′-biphenyl]-3-yl)methoxy)-5-(2,2,2-trifluoroethoxy)-2,3-dihydro-1H-inden-4-yl)methyl)piperidine-2-carboxylic acid] |
| 100 to 500 nM | CC(=O)NCCNCc1c(OCCCCC(N)=O)cc(OCc2cccc(-c3ccccc3)c2C)c2c1CCC2 [Compound 66, 5-((4-(((2-acetamidoethyl)amino)methyl)-7-((2-methyl-[1,1′-biphenyl]-3-yl)methoxy)-2,3-dihydro-1H-inden-5-yl)oxy)pentanamide] |
| > 500 nM | CC(=O)NCCNCc1ccc(OCc2cccc(-c3ccccc3)c2C)c2c1CCC2 [Compound 16, N-(2-(((7-((2-methyl-[1,1′-biphenyl]-3-yl)methoxy)-2,3-dihydro-1H-inden-4-yl)methyl)amino)ethyl)acetamide] |
| < 100 nM | Cc1c(COc2cc(OCCCCC(N)=O)c(CN3CCCC[C@H]3C(=O)O)c3c2CCC3)cccc1-c1ccccc1 [Compound 68, (S)-1-((5-((5-amino-5-oxopentyl)oxy)-7-((2-methyl-[1,1′-biphenyl]-3-yl)methoxy)-2,3-dihydro-1H-inden-4-yl)methyl)piperidine-2-carboxylic acid] |
| 100 to 500 nM | Cc1c(COc2ccc(CNC3(C(=O)O)CC3)c3c2CCC3)cccc1-c1ccccc1 [Compound 19, 1-(((7-((2-methyl-[1,1′-biphenyl]-3-yl)methoxy)-2,3-dihydro-1H-inden-4-yl)methyl)amino)cyclopropane-1-carboxylic acid] |
